Results from ChEMBL document CHEMBL1138039, “Discovery and pharmacological evaluation of growth hormone secretagogue receptor antagonists” (J Med Chem, 2006).
The source made the active and inactive calls. The rule behind the calls is not given here.

How the values were obtained:
[1] = target: T1, Growth hormone secretagogue receptor type 1 (Homo sapiens, UniProt Q92847); assay: Inhibition of [125I]ghrelin binding to GHS receptor in CHO-K cells; type: cell-based
[2] = target: T2, Dihydrofolate reductase (Homo sapiens, UniProt P00374); assay: Inhibition of human recombinant DHFR assessed as rate of depletion of NADPH
T2 sequence (P00374 whole entry): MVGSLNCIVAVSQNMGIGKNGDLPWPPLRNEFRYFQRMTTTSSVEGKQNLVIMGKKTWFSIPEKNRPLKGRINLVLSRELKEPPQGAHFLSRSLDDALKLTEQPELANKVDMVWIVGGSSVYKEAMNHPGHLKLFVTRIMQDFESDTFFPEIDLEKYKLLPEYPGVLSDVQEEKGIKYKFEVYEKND

[3] = target: T1, Growth hormone secretagogue receptor type 1; assay: Activity at GHS receptor by calcium flux assay in CHO-K cells; type: functional, cell-based
[4] = target: T3, Dihydrofolate reductase (Homo sapiens) (UniProt P00374); assay: Inhibition of human recombinant DHFR assessed as rate of depletion of NADPH at 1 uM
T3 sequence (whole entry): T2 sequence (P00374 whole entry)

[5] = Bioavailability in rat; type: ADME, organism-based; conditions: in vivo
[6] = Ratio of drug level in brain against plasma in rat after 1 hr; type: ADME, organism-based; conditions: read-out: BBR
[7] = system: Mus musculus; assay: Reduction of cumulative food intake in fasted DIO mouse at 30 mg/kg, ip after 2 hrs; type: functional, organism-based; design: dose 30 mg/kg
[8] = Ratio of drug level in brain against plasma in rat after 8 hrs; type: ADME, organism-based; conditions: read-out: BBR
[9] = system: Mus musculus; assay: Reduction of cumulative food intake in fasted DIO mouse at 30 mg/kg, ip after 24 hrs; type: functional, organism-based; design: dose 30 mg/kg
[10] = system: Mus musculus; assay: Reduction of cumulative food intake in fasted DIO mouse at 30 mg/kg, ip after 4 hrs; type: functional, organism-based; design: dose 30 mg/kg
[11] = system: Mus musculus; assay: Reduction of cumulative food intake in fasted DIO mouse at 100 mg/kg, po after 20 mins; type: functional; design: scale not given: the % may be the effect or the level left
[12] = system: Mus musculus; assay: Ratio of drug level in brain against plasma in orally dosed DIO mouse; type: ADME, organism-based; conditions: po
[13] = AUC in orally dosed DIO mouse; type: ADME, organism-based; conditions: plasma, po
[14] = Half life in DIO mouse; type: ADME, organism-based; conditions: in vivo
[15] = system: Mus musculus; assay: Reduction of cumulative food intake in fasted DIO mouse at 100 mg/kg, po after 1 hr; type: functional; design: scale not given: the % may be the effect or the level left
[16] = system: Mus musculus; assay: Reduction of cumulative food intake in fasted DIO mouse at 30 mg/kg, po after 1 hr; type: functional; design: scale not given: the % may be the effect or the level left
[17] = system: Mus musculus; assay: Reduction of cumulative food intake in fasted DIO mouse at 30 mg/kg, po after 20 mins; type: functional; design: scale not given: the % may be the effect or the level left
[18] = system: Mus musculus; assay: Decrease of epididymal fat pad weight in C57BL/6J mouse at 50 mg/kg, po after 14 days; type: functional; design: scale not given: the % may be the effect or the level left
[19] = AUC in orally dosed rat; type: ADME, organism-based; conditions: plasma, po
[20] = Ratio of drug level in brain against plasma in rat after 4 hrs; type: ADME, organism-based; conditions: read-out: BBR
[21] = Half life in rat; type: ADME, organism-based; conditions: in vivo
[22] = system: Mus musculus; assay: Change in lean body mass of C57BL/6J mouse at 50 mg/kg, po after 14 days; type: functional, organism-based; design: dose 50 mg/kg
[23] = system: Mus musculus; assay: Decrease of food intake in C57BL/6J mouse at 50 mg/kg, po after 1 day; type: functional, organism-based; design: dose 50 mg/kg
[24] = system: Mus musculus; assay: Decrease of plasma insulin level in C57BL/6J mouse at 50 mg/kg, po after 14 days; type: functional, organism-based; design: dose 50 mg/kg
[25] = system: Mus musculus; assay: Decrease of body weight in C57BL/6J mouse at 50 mg/kg, po after 14 days; type: functional; design: scale not given: the % may be the effect or the level left
[26] = system: Rattus norvegicus; assay: Reduction of cumulative food intake in Sprague-Dawley rat at 50 mg/kg, po after 24 hrs; type: functional; design: scale not given: the % may be the effect or the level left
[27] = system: Rattus norvegicus; assay: Reduction of cumulative food intake in Sprague-Dawley rat at 50 mg/kg, po after 32 hrs; type: functional; design: scale not given: the % may be the effect or the level left

T1 sequence (Q92847 whole entry): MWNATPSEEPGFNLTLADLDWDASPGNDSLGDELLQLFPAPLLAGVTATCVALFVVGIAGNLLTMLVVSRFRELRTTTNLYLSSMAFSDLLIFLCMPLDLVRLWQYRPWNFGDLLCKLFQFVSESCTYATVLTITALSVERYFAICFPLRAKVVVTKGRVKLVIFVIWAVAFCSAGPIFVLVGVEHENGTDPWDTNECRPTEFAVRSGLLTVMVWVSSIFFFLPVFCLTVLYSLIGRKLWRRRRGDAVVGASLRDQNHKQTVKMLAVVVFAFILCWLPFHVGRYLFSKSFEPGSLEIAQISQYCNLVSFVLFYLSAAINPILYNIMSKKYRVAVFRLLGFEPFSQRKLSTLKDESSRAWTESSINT

IC50 [1] [nM] | IC50 [2] [nM] | IC50 [3] [nM] | SMILES | further results
2270 |  | > 10000 | CC(=O)Nc1ccc(-c2c(N)nc(N)nc2COCc2ccccc2)cc1 | 
1670 |  | > 10000 | CN(C(=O)C1CCCC1)c1ccc(-c2c(N)nc(N)nc2COCc2ccccc2)cc1 | 
 | > 10000 | 56 | CC(C)NC(=O)Nc1ccc(-c2c(N)nc(N)nc2COCc2ccccc2)cc1 | 
72 |  | 108 | CC(C)CC(=O)Nc1ccc(-c2c(N)nc(N)nc2COCc2ccccc2)cc1 | 
126 |  | > 10000 | Nc1nc(N)c(-c2ccc(NC(=O)c3ccsc3)cc2)c(COCc2ccccc2)n1 | 
18 | > 10000 | 40 | Nc1nc(N)c(-c2ccc(NC(=O)C3CCCC3)cc2)c(COCc2ccccc2)n1 | 
221 |  | > 10000 | CCC(=O)Nc1ccc(-c2c(N)nc(N)nc2COCc2ccccc2)cc1 | 
 | > 100000 | 7 | CC(C)(C)NC(=O)Nc1ccc(-c2c(N)nc(N)nc2COCc2ccccc2)cc1 | Activity [11]: 40%; BBR [12]: Not Active; AUC [13]: 12300 ng·h/mL; half-life [14]: 4.5 h; Activity [15]: 60%; Activity [16]: 60%; Activity [17]: 40%
 |  | > 10000 | CC(C)N(C)C(=O)Nc1ccc(-c2c(N)nc(N)nc2COCc2ccccc2)cc1 | 
391 |  | > 10000 | Nc1nc(N)c(-c2ccc(NC(=O)C3CCCO3)cc2)c(COCc2ccccc2)n1 (configuration not stated) | 
66 | 28000 | 188 | Nc1nc(N)c(-c2ccc(NC(=O)C3CC3)cc2)c(COCc2ccccc2)n1 | Activity [18]: 20%; Kp at 1 h [6]: 0.26; AUC [19]: 820 ng·h/mL; Kp at 4 h [20]: 1.1; half-life [21]: 2.4 h; Activity [22]: inactive; Activity [23]: Active; Kp at 8 h [8]: 0.97; Activity [24]: Active; Activity [25]: 5.4%; bioavailability [5]: 32%; Activity [26]: 9%; Activity [27]: 11%

More lines, now with the values behind:

SMILES | IC50 [1] [nM] | IC50 [2] [nM] | IC50 [3] [nM] | further results
CCc1nc(N)nc(N)c1-c1ccc2c(c1)nc(C1CCCC1)n2Cc1ccc(S(C)(=O)=O)cc1 | 8 | 1830 | 109 | 
Nc1nc(N)c(-c2ccc(NC(=O)Cc3ccsc3)cc2)c(COCc2ccccc2)n1 | 70 |  | 382 | 
CCc1nc(N)nc(N)c1-c1ccc2c(c1)nc(-c1ccccc1)n2Cc1ccc(S(C)(=O)=O)cc1 | 16 | 2300 | 249 | 
Nc1nc(N)c(-c2ccc(NC(=O)Cc3ccsc3Br)cc2)c(COCc2ccccc2)n1 | 41 | > 10000 | 137 | 
CC(NC(=O)Nc1ccc(-c2c(N)nc(N)nc2COCc2ccccc2)cc1)c1ccccc1 (configuration not stated) |  |  | 10 | 
Nc1nc(N)c(-c2ccc(NC(=O)Cc3cccnc3)cc2)c(COCc2ccccc2)n1 | > 1000 |  | > 10000 | 
CCc1nc(N)nc(N)c1-c1ccc2c(c1)ncn2Cc1ccc(S(C)(=O)=O)cc1 | 4 |  | 11 | inhibition [4]: 78%
Nc1nc(N)c(-c2ccc(NC(=O)NCc3ccccc3)cc2)c(COCc2ccccc2)n1 |  |  | 34 | 
CCc1nc(N)nc(N)c1-c1ccc(NCc2ccc(Cl)cc2)cc1 |  |  |  | bioavailability [5]: 75%
Nc1nc(N)c(-c2ccc(NC(=O)Nc3ccccc3)cc2)c(COCc2ccccc2)n1 |  | > 10000 | 88 | 
Nc1nc(N)c(-c2ccc(NC(=O)NCCc3ccccc3)cc2)c(COCc2ccccc2)n1 |  | > 10000 | 7 | 
Nc1nc(N)c(-c2ccc(NC(=O)c3ccncc3)cc2)c(COCc2ccccc2)n1 | 3080 |  | > 10000 | 
Nc1nc(N)c(-c2ccc(NC(=O)Cc3ccccc3)cc2)c(COCc2ccccc2)n1 | 37 | > 10000 | 408 | 
Nc1nc(N)c(-c2ccc(NCc3ccc(Cl)cc3)cc2)c(COCc2ccccc2)n1 |  |  |  | Kp at 1 h [6]: 3.1; Activity [7]: Active; Kp at 8 h [8]: 1.4; Activity [9]: Active; Activity [10]: Active
CCc1nc(N)nc(N)c1-c1ccc(NCc2ccc(S(C)(=O)=O)cc2)cc1 | 7 | < 10 | 19 | inhibition [4]: 99%
Nc1nc(N)c(-c2ccc(NC(=O)CCc3ccccc3)cc2)c(COCc2ccccc2)n1 | 47 |  | 343 | 
